Consider one compound from PubChem BioAssay AID1259411 (Chemical Carcinogenesis Research Information System (CCRIS), 2018).

The source made the active and inactive calls. How the calls were made is not given here.

In the series the test system is rodent carcinogenicity bioassays, tumor incidence. Put plainly: CCRIS carcinogenicity studies. The settings on record: Dose: 0. In a few lines:
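Archive of carcinogenicity, mutagenicity, tumor promotion and tumor inhibition results drawn from journals, NCI reports and other sources, expert-reviewed; covers 1985-2011 and is no longer updated.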

In the case of `C=CC#N`, the carcinogen call (Species: RAT, Strain/Sex: SPRAGUE-DAWLEY/FEMALE, Route: GAVAGE, 5 MG/KG IN OLIVE OIL 1/D 3 D/WK FOR 52 WK (STUDY DURATION: LIFETIME)) was “inactive; negative”; the carcinogen call (Species: RAT, Strain/Sex: SPRAGUE-DAWLEY/FEMALE, Route: INHALATION, 60 PPM 4 HR/D 5 D/WK FOR 7 WK THEN 7 HR/D 5 D/WK FOR 8 WK ADMINISTRATION STARTED WITH EMBRYOS ON 12TH DAY OF GESTATIO) was “inactive; negative”; the carcinogen call (Species: RAT, Strain/Sex: SPRAGUE-DAWLEY/FEMALE, Route: INHALATION, 60 PPM 4 HR/D 5 D/WK FOR 7 WK THEN 7 HR/D 5 D/WK FOR 97 WK ADMINISTRATION STARTED WITH EMBRYOS ON DAY 12 OF GESTATION, Tumor Site: Type of Lesion: MAMMARY GLAND: TUMORS, LIVER: ANGIOSARCOMA, BRAIN: GLIOMA, Tumor Site: Type of Lesion: MAMMARY GLAND: TUMORS, LIVER: ANGIOSARCOMA, BRAIN: GLIOMA) is “active; positive”; the carcinogen call (Species: RAT, Strain/Sex: SPRAGUE-DAWLEY/FEMALE, Route: ORAL, 1, 100 PPM IN DRINKING WATER FOR 22 MO (STUDY DURATION: 20 MO), 1, 100 PPM IN DRINKING WATER FOR 22 MO (STUDY DURATION: 20 MO), Tumor Site: Type of Lesion: BRAIN: ASTROCYTOMA, ZYMBAL'S GLAND/EAR CANAL: ADENOMA OR CARCINOMA, FORESTOMACH: SQUAMOUS CELL PAPILLOMA/PAPILLOMA OR SQ, Tumor Site: Type of Lesion: BRAIN: ASTROCYTOMA, ZYMBAL'S GLAND/EAR CANAL: ADENOMA OR CARCINOMA, FORESTOMACH: SQUAMOUS CELL PAPILLOMA/PAPILLOMA OR SQ) is “active; positive”; the carcinogen call (Species: RAT, Strain/Sex: SPRAGUE-DAWLEY/MALE, Route: GAVAGE, 0.1, 10 MG/KG/D 7D/WK FOR 20 MO (STUDY DURATION: 20 MO), 0.1, 10 MG/KG/D 7D/WK FOR 20 MO (STUDY DURATION: 20 MO), Tumor Site: Type of Lesion: BRAIN: ASTROCYTOMA, ZYMBAL'S GLAND/EAR CANAL: CARCINOMA, FORESTOMACH: SQUAMOUS CELL PAPILLOMA/PAPILLOMA, SQUAMOUS CELL C, Tumor Site: Type of Lesion: BRAIN: ASTROCYTOMA, ZYMBAL'S GLAND/EAR CANAL: CARCINOMA, FORESTOMACH: SQUAMOUS CELL PAPILLOMA/PAPILLOMA, SQUAMOUS CELL C) was “active; positive”; the carcinogen call (Species: RAT, Strain/Sex: SPRAGUE-DAWLEY/MALE, Route: GAVAGE, 5 MG/KG BW IN OLIVE OIL 3/WK FOR 52 WK (STUDY DURATION: LIFETIME), Tumor Site: Type of Lesion: [BRAIN WAS ONLY SITE EVALUATED]) was “inactive; negative”. For the same compound, the carcinogen call was “inactive; negative” (Species: RAT, Strain/Sex: SPRAGUE-DAWLEY/MALE, Route: GAVAGE, 5 MG/KG IN OLIVE OIL 1/D 3 D/WK FOR 52 WK (STUDY DURATION: LIFETIME)); “inactive; negative” (Species: RAT, Strain/Sex: SPRAGUE-DAWLEY/MALE, Route: INHALATION, 60 PPM 4 HR/D 5 D/WK FOR 7 WK THEN 7 HR/D 5 D/WK FOR 8 WK ADMINISTRATION STARTED WITH EMBRYOS ON 12TH DAY OF GESTATIO); “active; positive” (Species: RAT, Strain/Sex: SPRAGUE-DAWLEY/MALE, Route: INHALATION, 60 PPM 4 HR/D 5 D/WK FOR 7 WK THEN 7 HR/D 5 D/WK FOR 97 WK ADMINISTRATION STARTED WITH EMBRYOS ON DAY 12 OF GESTATION, Tumor Site: Type of Lesion: ZYMBAL GLAND: CARCINOMA, LIVER: HEPATOMA, BRAIN: GLIOMA, Tumor Site: Type of Lesion: ZYMBAL GLAND: CARCINOMA, LIVER: HEPATOMA, BRAIN: GLIOMA); “active; positive” (Species: RAT, Strain/Sex: SPRAGUE-DAWLEY/MALE, Route: ORAL, 1, 100 PPM IN DRINKING WATER FOR 22 MO (STUDY DURATION: 20 MO), 1, 100 PPM IN DRINKING WATER FOR 22 MO (STUDY DURATION: 20 MO), Tumor Site: Type of Lesion: BRAIN: ASTROCYTOMA, ZYMBAL'S GLAND/EAR CANAL: ADENOMA OR CARCINOMA, FORESTOMACH: SQUAMOUS CELL PAPILLOMA/PAPILLOMA OR SQ, Tumor Site: Type of Lesion: BRAIN: ASTROCYTOMA, ZYMBAL'S GLAND/EAR CANAL: ADENOMA OR CARCINOMA, FORESTOMACH: SQUAMOUS CELL PAPILLOMA/PAPILLOMA OR SQ); “active; positive” (Species: RAT, Strain/Sex: SPRAGUE-DAWLEY/MALE, Route: ORAL, 20, 100, 500 PPM IN DRINKING WATER FOR DURATION OF STUDY (STUDY DURATION: 2 YR), 20, 100, 500 PPM IN DRINKING WATER FOR DURATION OF STUDY (STUDY DURATION: 2 YR), Tumor Site: Type of Lesion: ZYMBAL'S GLAND: TUMOR); “active; positive” (Species: Rat, Strain/Sex: Sprague Dawley/Female (80/group, Controls; 48/group, Experimental), Route: Oral, 35, 100, 300 ppm (0; 4.4; 10.8; 25.0 mg/kg) in drinking water for 2 yr, 35, 100, 300 ppm (0; 4.4; 10.8; 25.0 mg/kg) in drinking water for 2 yr, Tumor Site: Type of Lesion: Nervous system (brain and spinal cord): Combined focal or multifocal glial cell proliferation and/or astrocytoma (1/80). Further, where the note is “Species: Rat, Strain/Sex: Sprague Dawley/Male (80/group, Controls; 48/group, Experimental), Route: Oral, 35, 100, 300 ppm (0; 3.4; 8.5; 21.3 mg/kg in drinking water for 2 yr), 35, 100, 300 ppm (0; 3.4; 8.5; 21.3 mg/kg in drinking water for 2 yr), Tumor Site: Type of Lesion: Nervous system (brain and spinal cord): Combined focal or multifocal glial cell proliferation and/or astrocytoma (1/80”, the carcinogen call was “active; positive”.
